Data taken from patent publication US5847123A, “Imide derivatives for inhibiting the production of interleukin-1β and the production of tumor necrosis factor α” (Nisshin Flour Milling Co., Ltd., priority 1996, dated 1998).

How the values were obtained:
IL-1β production = test: Inhibitory activity of the IL-1β production in PMA/polyinosic acid-stimulated THP-1 cells (enzyme immunoassay); assay type: cell-based, human (THP-1 cells); conditions: Homo sapiens, PMA 2 μg/ml and polyinosic acid 200 μg/ml, 22 hours
Experimental: (§1) Determination for the inhibitory activity of the IL-1β production and the inhibitory activity of the TNFα production
(§2) The THP-1 cells, which is the monocyte-established cell line derived from human peripheral blood (ATCC TIB202), were incubated at 37° C. in a 5% CO2 incubator in RPMI 1640 medium (available from Bio-Whittaker Co., Ltd.) containing 10% (v/v) of fetal bovine serum, 2 mM of glutamine, 50 μM of 2-mercaptoethanol, 60 μg/ml of penicillin and 100 μg/ml of streptomycin. The THP-1 cells maintained as described above were centrifuged at 1200 rpm at room temperature for 3 minutes to recover the cells in a 50 ml conical tube. The cell pellets thus obtained were resuspended in RPMI 1640 medium containing 2% (v/v) of fetal bovine serum and the glutamine, 2-mercaptoethanol and antibiotics as described above so as to provide a final THP-1 cell concentration of 2×10^6 cells/ml.
(§3) The cell resuspension having the above concentration was dispensed in 0.5 ml portions to a 24-well plate for cell culture. Then, 2.5 μl each of the solutions of the present imide derivatives dissolved in DMSO was added to each well. The plate was then incubated at 37° C. in a 5% CO2 incubator for one hour. Then, 12-o-tetradecanoylphorbol-13-acetate (hereinafter referred to as PMA) and polyinosic acid were added to each well so as to provide the final concentrations of 2 μg/ml and 200 μg/ml, respectively. The plate was further incubated at 37° C. in a 5% CO2 incubator for 22 hours and the IL-1β and TNFα produced in the cultured broth were assayed. The assay for IL-1β was carried out by means of the enzyme immunoassay kit available from Cayman Chemical Co., Ltd., while the assay of TNFα was done by means of the ELIZA kit available from Genzyme Co., Ltd.
(§4) The inhibitory activity was expressed in terms of IC50 values, wherein the produced amount of IL-1β and the produced amount of TNFα when no imide derivative was added are defined as 100, respectively, and the concentration of each imide derivative of the present invention to inhibit the IL-1β production and TNFα production is defined as IC50, respectively.

TNFα production [1] = test: Inhibitory activity of the TNFα production in PMA/polyinosic acid-stimulated THP-1 cells (ELIZA kit); assay type: cell-based, human (THP-1 cells); conditions: Homo sapiens, PMA 2 μg/ml and polyinosic acid 200 μg/ml, 22 hours
Experimental: as §1, §2, §3, §4

[2] = Determination for cytotoxicity in THP-1 cells (Alamar Blue); assay type: cell-based; conditions: human, 24 hours incubation, read-out: LD50 (lethal dose for 50% in the THP-1 cells)
Experimental: Determination for Cytotoxicity The THP-1 cells, which is the monocyte-established cell line derived from human peripheral blood (ATCC TIB202), were incubated at 37° C. in a 5% CO2 incubator in RPMI 1640 medium (available from Bio-Whittaker Co., Ltd.) containing 10% (v/v) of fetal bovine serum, 2 mM of glutamine, 50 μM of 2-mercaptoethanol, 60 μg/ml of penicillin and 100 μg/ml of streptomycin. The THP-1 cells maintained as described above were centrifuged at 1200 rpm at room temperature for 3 minutes to recover the cells in a 50 ml conical tube. The cell pellets thus obtained were suspended in RPMI 1640 medium containing 2% (v/v) of fetal bovine serum, 2 mM of glutamine, 50 μM of 2-mercaptoethanol, 60 μg/ml of penicillin and 100 μg/ml of streptomycin so as to provide the final cell concentration of 1×10^6 cells/ml. The cell suspension obtained as above was dispensed in 1 ml portions to a 24-well plate for cell culture. Then, 5 μl each of the solutions of the present imide derivatives dissolved in DMSO was added to each well. The plate was then incubated at 37° C. in a 5% CO2 incubator for 24 hours. After incubation, 100 μl of Alamar Blue (available from Biosource Co., Ltd.) was added to each well and then the plate was further incubated at 37° C. in a 5% CO2 incubator for 3 hours. Thereafter, a supernatant was recovered and determined for a difference in absorbances at 570 nm and 600 nm. Cytotoxicity was then evaluated in accordance with the survival rates determined from the differences in absorbances. More specifically, the lethal dose for 50% (LD50) in the THP-1 cells were calculated.

TNFα production [3] = test: Inhibitory activity of the TNFα production in LPS-treated mice (blood TNFα level); assay type: in vivo, DBA/2 strain mice; conditions: for Inhibitory rate (%) of TNFα production: 10 mg/kg i.p. twice (before and after 30 minutes from LPS 5.6 mg/kg i.v.), blood TNFα after 2 hours; for inhibitory activity on the TNFα production in mice (in words): 10 mg/kg i.p., LPS-treated DBA/2 mice
Experimental: Determination for the inhibitory activity of the TNFα production To the DBA/2 strain mice previously given with LPS 5.6 mg/kg, i.v. were intraperitoneally administered twice before and after 30 minutes from the LPS administration the present imide derivatives selected from Compound 1, Compound 3, Compound 7, Compound 8, Compound 9 and Compound 26. After 2 hours from the LPD administration, the blood TNFα level was determined to investigate the inhibitory activity of the present imide derivatives on the TNFα production. More specifically, the blood TNFα level was determined when the present imide derivative was given at a dose of 10 mg/kg to calculate the inhibitory rate of the TNFα production.

Structure (SMILES) | IC50 (IL-1β production) [µM] | IC50 (TNFα production [1]) [µM] | CC50 at 24 h [2] [µM] | Inhibitory rate (%) of TNFα production (TNFα production [3]) [%] | inhibitory activity on the TNFα production in mice (in words) (TNFα production [3])
O=C(C#Cc1ccccc1)N1CCCC1=O [Compound 1] | 1.4 | 1 | 70 | 22 | significant inhibitory activity
O=C(C#Cc1ccc(F)cc1)N1CCCC1=O [Compound 3] | 3.8 | 1.3 | > 100 | 37 | significant inhibitory activity
N#Cc1ccc(C#CC(=O)N2CCCC2=O)cc1 [Compound 4] | 7 | 1.7 | – | – | –
O=C(C#Cc1ccc(F)cc1)N1CCOC1=O [Compound 6] | 2.4 | 1.7 | > 100 | – | –
O=C(C#Cc1ccccc1)N1CCOC1=O [Compound 7] | 1.1 | 1.2 | > 200 | 22 | significant inhibitory activity
O=C(C#Cc1ccccc1)N1CCCCCC1=O [Compound 8] | 6 | 2.1 | > 200 | 31 | significant inhibitory activity
CC1CCC(=O)N1C(=O)C#Cc1ccccc1 (stereo not shown) [Compound 9] | 2.8 | 0.9 | 110 | 29 | significant inhibitory activity
CCN(C(=O)C#Cc1ccccc1)C(=O)c1ccccc1 [Compound 12] | 9.6 | 5.4 | – | – | –
O=C(C#Cc1ccccc1)N(Cc1ccc(F)cc1)C(=O)c1ccccc1 [Compound 13] | 15 | 15 | – | – | –
CCCCC(=O)N(CCCC)C(=O)C#Cc1ccccc1 [Compound 16] | 13 | 14 | – | – | –
CC(=O)N(C(=O)C#Cc1ccccc1)c1ccccn1 [Compound 22] | 12 | 14 | – | – | –
CC(=O)N(Cc1ccco1)C(=O)C#Cc1ccccc1 [Compound 24] | 10 | 4.4 | – | – | –
CCN(C(=O)C#Cc1ccccc1)C(=O)c1cccs1 [Compound 25] | > 30 | 4.8 | – | – | –
CC(=O)N(C(=O)C#Cc1ccccc1)c1ccncc1 [Compound 26] | 8.8 | 1.7 | – | 37 | significant inhibitory activity
O=C(C#Cc1ccccc1)N(C(=O)c1ccccc1)c1ccc(F)cc1F [Compound 27] | 14 | 3 | – | – | –
CC(=O)N(CCc1ccccc1)C(=O)C#Cc1ccccc1 [Compound 28] | 8.8 | 1.7 | – | – | –
CCN(C(=O)C#Cc1ccccc1)C(=O)COC [Compound 29] | > 30 | > 30 | – | – | –

Second part, led by results:

IC50 (IL-1β production) [µM] | IC50 (TNFα production [1]) [µM] | Structure (SMILES) | CC50 at 24 h [2] [µM] | Inhibitory rate (%) of TNFα production (TNFα production [3]) [%] | inhibitory activity on the TNFα production in mice (in words) (TNFα production [3])
7 | 0.6 | COC(=O)C1CCC(=O)N1C(=O)C#Cc1ccccc1 (racemic) [Compound 21] | – | – | –
5.5 | 1.6 | O=C(C#Cc1ccc(Cl)cc1)N1CCCC1=O [Compound 2] | – | – | –
2.6 | 2.1 | N#Cc1ccc(C#CC(=O)N2CCOC2=O)cc1 [Compound 5] | – | – | –
6.7 | 0.5 | O=C(C#Cc1ccccc1)N1CCN(C(=O)C#Cc2ccccc2)C1=O [Compound 10] | – | – | –
1.8 | 0.5 | O=C(C#Cc1ccccc1)N1CCNC1=O [Compound 11] | – | – | –
4.4 | 1.8 | CC(=O)NC(=O)C#Cc1ccccc1 [Compound 14] | – | – | –
6.3 | 1.7 | CC(=O)N(C(=O)C#Cc1ccccc1)c1ccc2c(c1)OCO2 [Compound 15] | – | – | –
3.1 | 1.8 | COc1ccccc1CN(C(C)=O)C(=O)C#Cc1ccccc1 [Compound 17] | – | – | –
5.7 | 4.4 | CCN(C(C)=O)C(=O)C#Cc1ccccc1 [Compound 18] | – | – | –
2 | 1.3 | CCN(C(=O)C#Cc1ccccc1)C(=O)Cc1ccccc1Cl [Compound 19] | – | – | –
1.3 | 1.9 | Cc1ccccc1N(C(=O)C#Cc1ccccc1)C(=O)CCc1ccccc1 [Compound 20] | – | – | –
6.3 | 3.7 | CC(=O)N(CCN(C)C)C(=O)C#Cc1ccccc1 [Compound 30] | – | – | –
